Here are results for three compounds from patent US5948803A, “N-substituted dioxothiazolidylbenzamide derivatives and process for producing the same” (Kyorin Pharmaceutical Co., Ltd., priority 1995, dated 1999).

Experiment [1] deals with inherited obese mice (C57BL ob/ob). Briefly: Blood sugar-lowering effect in glucose tolerance test, inherited obese mice (C57BL ob/ob). Type of experiment: in vivo, mouse (C57BL ob/ob). The note with it: 10 mg/kg oral, 5 days; glucose 2 g/kg orally after overnight fasting; blood sugar at 0, 30 and 60 minutes. On the procedure: Employing inherited obese mice (C57BL ob/ob), prior to test, the blood sugar level was determined by collecting blood from caudal vein. The mice were grouped so as not to cause any difference in the blood sugar level, and the compounds of Example 16, 17 and 29 were administered orally for 5 days at a dosage of 10 mg/kg. For the glucose tolerance test, 2 g/kg of glucose were administered orally after fasting overnight and the blood sugar levels at 0 minute, 30 minutes and 60 minutes were determined. The blood sugar-lowering rate was calculated from following formula. [formula]

Another experiment deals with T1, aldose reductase (Rattus norvegicus, UniProt P07943).
T1 construct: aldose reductase extracted from rat lens; from tissue; host or cells: rat lens
The experiment in a line: In-vitro inhibitory effect against aldose reductase extracted from rat lens (method of Hayman and Kinoshita). Type of experiment: biochemical. The source says: Against aldose reductase extracted from rat lens, the in-vitro inhibitory effect of the compound of Example 16 was investigated by the method of Hayman and Kinoshita (Journal of Biological Chemistry, vol. 240, p. 877 (1965)).

The test system of experiment [2] is inherited obese mice (C57BL ob/ob). The experiment in a line: Triglyceride-lowering effect in blood, inherited obese mice (C57BL ob/ob). Type of experiment: in vivo, mouse (C57BL ob/ob). The note with it: 2 weeks. On the procedure:
Employing inherited obese mice (C57BL ob/ob), the compound of Example 16 was administered orally for 2 weeks at following dosages, and thereafter the triglyceride level in blood was determined. The triglyceride-lowering rate in blood was calculated from following formula. [formula]

As usually defined, the IC50 is the concentration that inhibits the measured activity by half. High values mean lower potency, low ones higher potency.

In experiment [1], `COc1ccc(C2SC(=O)NC2=O)cc1C(=O)NCc1ccc(C(F)(F)F)cc1` (stereo not drawn) [Example 16, N-(4-trifluoromethylbenzyl)-5-(2,4-dioxothiazolidin-5-yl)-2-methoxybenzamid] gave a Blood sugar-depressing rate of 48%. Besides, the IC50 against aldose reductase amounted to 23 nM. In addition, the “In-blood triglyceride depressing rate” value in experiment [2] (3 mg/kg oral) is 51%; in experiment [2] (10 mg/kg oral), 70%.

The compound `COc1ccc(C2SC(=O)NC2=O)cc1C(=O)NCc1cccc(C(F)(F)F)c1` (stereo not drawn) [Example 17] registered a Blood sugar-depressing rate in experiment [1] of 42%.

The compound `O=C1NC(=O)C(c2ccc(F)c(C(=O)NCc3ccc(C(F)(F)F)cc3)c2)S1` (stereo not drawn) [Example 29] returned a Blood sugar-depressing rate in experiment [1] of 30%.
